# How the values were obtained:
# [1] = tested on: Erysiphe [syn. Blumeria] graminis forma specialis. tritici; assay: Activity against mildew of wheat (protective spray, greenhouse); type: in vivo; conditions: wheat seedlings Kanzler, 7 days
# Procedure: (§1) Evaluation is carried out by determining the infected leaf areas as a percentage. These percentages are converted into efficacies. The efficacy (W) is calculated as follows using Abbot's formula: [formula] • α corresponds to the fungal infection of the treated plants as a % and • β corresponds to the fungal infection of the untreated (control) plants as a %
# (§2) An efficacy of 0 means that the infection level of the treated plants corresponds to that of the untreated control plants; an efficacy of 100 means that the treated plants were not infected.
# (§3) The expected efficacies of the mixtures of the active compounds were determined using Colby's formula [R. S. Colby, Weeds 15, 20-22 (1967)] and compared with the observed efficacies. Colby's formula: E=x+y−x·y/100 • E expected efficacy, expressed as a % of the untreated control, when using the mixture of the active compounds A and B at the concentrations a and b • x efficacy, expressed as a % of the untreated control, when using active compound A at a concentration of a • y efficacy, expressed as a % of the untreated control, when using active compound B at a concentration of b
# Leaves of wheat seedlings of the cultivar “Kanzler”, grown in pots, were sprayed to runoff point with an aqueous preparation of active compound which had been prepared from a stock solution comprising 10% of active compound, 85% of cyclohexanone and 5% of emulsifier, and 24 hours after the spray coating had dried on the leaves were dusted with spores of mildew of wheat (Erysiphe [syn. Blumeria] graminis forma specialis. tritici). The test plants were then placed in a greenhouse at 20-24° C. and 60-90% relative atmospheric humidity. After 7 days, the extent of the mildew development was determined visually in % infection of the entire leaf area.
# (§4) The visually determined values for the percentage of diseased leaf areas were converted into efficacies in % of the untreated control. An efficacy of 0 means the same disease level in the untreated control, an efficacy of 100 means a disease level of 0%. The expected efficacies for the combinations of active compounds were determined using Colby's formula (Colby, S. R. (Calculating synergistic and antagonistic responses of herbicide Combinations”, Weeds, 15, pp. 20-22, 1967) and compared with the observed efficacies.
# Puccinia recondita = assay: Curative activity against brown rust of wheat (greenhouse); type: in vivo; conditions: wheat seedlings Kanzler, 7 days
# Procedure: The active compounds, separately or together, are formulated as a 10% emulsion in a mixture of 63% by weight of cyclohexanone and 27% by weight of emulsifier, and diluted with water to the desired concentration.
# as §1, §2, §3
# Leaves of wheat seedlings of the cultivar “Kanzler”, grown in pots, were dusted with spores of brown rust (Puccinia recondita). The pots were then placed in a chamber with high atmospheric humidity (90-95%), at 20-22° C., for 24 hours. During this time the spores germinated and the germinal tubes penetrated into the leaf tissue. The next day, the infected plants were sprayed to runoff point with an aqueous formulation of active compound prepared from a stock solution consisting of 10% of active compound, 85% of cyclohexanone and 5% of emulsifier. After the spray coating had dried on, the test plants were cultivated in a greenhouse at 20-22° C. and 65-70% relative atmospheric humidity for 7 days. Thereafter, the extent of the rust fungus development on the leaves was determined.
# as §4, with “disease level as in the” for “disease level in the”, “Colby's formula (Colby. S. R.” for “Colby's formula (Colby, S. R.”
SMILES,Efficacy in % of the untreated control ([1]; 0.015 ppm in the spray liquor) [%],Efficacy in % of the untreated control ([1]; 0.06 ppm in the spray liquor) [%],Efficacy in % of the untreated control ([1]; 0.125 ppm in the spray liquor) [%],Efficacy in % of the untreated control ([1]; 0.25 ppm in the spray liquor) [%],Efficacy in % of the untreated control ([1]; 1 ppm in the spray liquor) [%],Efficacy in % of the untreated control (Puccinia recondita; 0.015 ppm in the spray liquor) [%],Efficacy in % of the untreated control (Puccinia recondita; 0.06 ppm in the spray liquor) [%],Efficacy in % of the untreated control (Puccinia recondita; 0.25 ppm in the spray liquor) [%],Efficacy in % of the untreated control (Puccinia recondita; 1 ppm in the spray liquor) [%]
Fc1ccc(C2(Cn3cncn3)OC2c2ccccc2Cl)cc1 (centres unmarked) [epoxiconazole],0,0,0,29,59,0,11,56,
CCCCC(C#N)(Cn1cncn1)c1ccc(Cl)cc1 (centres unmarked) [myclobutanil],0,0,,0,,,0,0,0
CC1(C)CCC(Cc2ccc(Cl)cc2)C1(O)Cn1cncn1 (centres unmarked) [metconazole],0,0,,0,,0,0,56,

# From patent US20050148547A1, “Fungicidal mixtures based on benzamidoxime derivatives and azoles” (priority 2002, published 2005)
